System: AMPA receptor
Conditions: Table 1; primary culture of rat embryo cerebral cortex nerve cells, 2 μM AMPA, 1 μM MK-801
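Further: primary rat embryonic cortical neurons grown on an astrocyte layer in 96-well plates, used after at least 8 to 10 days in culture, Fura2-AM fluorescence ratio at 340/380 nm excitation.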

Compound	IC50 [nM]
N#Cc1ccccc1-c1cc(-c2ccccn2)cn(-c2cccc(CO)c2)c1=O [Example 21, 3-(2-Cyanophenyl)-5-(2-pyridyl)-1-(3-hydroxymethylphenyl)-1,2-dihydropyridin-2-one]	30
COc1ccccc1-c1cc(-c2ccccc2C#N)c(=O)n(-c2ccccc2)c1 [Example 42, 3-(2-Cyanophenyl)-5-(2-methoxyphenyl)-1-phenyl-1,2-dihydropyridin-2-one]	200
CCSc1ccc(-n2cc(-c3ccccn3)cc(-c3ccccc3C#N)c2=O)cn1 [Example 116, 3-(2-Cyanophenyl)-5-(2-pyridyl)-1-(2-ethylthiopyridin-5-yl)-1,2-dihydropyridin-2-one]	200
COc1cccc(-n2cc(-c3ccccn3)cc(-c3ccccc3C#N)c2=O)c1 [Example 96, 3-(2-Cyanophenyl)-5-(2-pyridyl)-1-(3-methoxyphenyl)-1,2-dihydropyridin-2-one]	60
O=c1c(-c2ccccc2Cl)cc(-c2ccccn2)cn1-c1ccc(O)cc1 [Example 18, 3-(2-Chlorophenyl)-5-(2-pyridyl)-1-(4-hydroxyphenyl)-1,2-dihydropyridin-2-one]	20
N#Cc1ccccc1-c1cc(-c2cccnc2)cn(-c2ccccc2)c1=O [Example 34, 3-(2-Cyanophenyl)-5-(3-pyridyl)-1-phenyl-1,2-dihydropyridin-2-one]	3700
Cc1ccccc1-c1cc(-c2ccccn2)cn(-c2ccccc2)c1=O [Example 60, 3-(2-Tolyl)-5-(2-pyridyl)-1-phenyl-1,2-dihydropyridin-2-one]	1700
COc1ccccc1-c1cc(-c2ccccn2)cn(-c2ccc(F)cc2)c1=O [Example 56, 3-(2-Methoxyphenyl)-5-(2-pyridyl)-1-(4-fluorophenyl)-1,2-dihydropyridin-2-one]	3200
COc1ccc(-n2cc(-c3ccccn3)cc(-c3ccccc3C#N)c2=O)cn1 [Example 109, 3-(2-Cyanophenyl)-5-(2-pyridyl)-1-(2-methoxypyridyn-5-yl)-1,2-dihydropyridin-2-one]	10
COc1ccccc1-c1cc(-c2ccccn2)cn(-c2cccnc2)c1=O [Example 129, 3-(2-Methoxyphenyl)-5-(2-pyridyl)-1-(3-pyridyl)-1,2-dihydropyridin-2-one]	2600
O=c1c(-c2ccsc2)cc(-c2ccccn2)cn1-c1cccnc1 [Example 133, 3-(Thiophen-3-yl)-5-(2-pyridyl)-1-(3-pyridyl)-1,2-dihydropyridin-2-one]	300
N#Cc1cccc(-c2cc(-c3ccccn3)cn(-c3ccccc3)c2=O)c1 [Example 63, 3-(3-Cyanophenyl)-5-(2-pyridyl)-1-phenyl-1,2-dihydropyridin-2-one]	1100
COc1cccc(-n2cc(-c3ccccn3)cc(-c3cccnc3F)c2=O)c1 [Example 80, 3-(2-Fluoro-3-pyridyl)-5-(2-pyridyl)-1-(3-methoxyphenyl)-1,2-dihydropyridin-2-one]	300
N#Cc1ccccc1-c1cc(-c2ccccc2N)cn(-c2ccccc2)c1=O [Example 2, 5-(2-Aminophenyl)-3-(2-cyanophenyl)-1-phenyl-1,2-dihydropyridin-2-one]	1800
N#Cc1ccccc1-c1cc(-c2ccccn2)cn(-c2cccc([N+](=O)[O-])c2)c1=O [Example 8, 3-(2-Cyanophenyl)-5-(2-pyridyl)-1-(3-nitrophenyl)-1,2-dihydropyridin-2-one]	100
COc1ccccc1-c1cc(-c2ccccn2)cn(-c2ccccc2)c1=O [Example 55, 3-(2-Methoxyphenyl)-5-(2-pyridyl)-1-phenyl-1,2-dihydropyridin-2-one]	800
CC(=O)NCc1cccc(-n2cc(-c3ccccn3)cc(-c3ccccc3C#N)c2=O)c1 [Example 23, 3-(2-Cyanophenyl)-5-(2-pyridyl)-1-(3-acetylaminomethylphenyl)-1,2-dihydropyridin-2-one]	200
N#Cc1ccccc1-c1cc(-c2ccco2)cn(-c2ccccc2)c1=O [Example 49]	200

Same assay, conditions: Table 2; suppression of AMPA-induced calcium influx into nerve cells

IC50 [nM]	Compound
3600	CN(C)CCOc1cccc(-c2cc(-c3ccccn3)cn(-c3ccccc3)c2=O)c1 [Example 247, 3-[3-(Dimethylaminoethoxy)phenyl]-1-phenyl-5-(2-pyridyl)-1,2-dihydropyridin-2-one]
500	COc1cccc(-c2cc(-c3ccccc3C#N)c(=O)n(-c3ccccc3)c2)n1 [Example 206, 3-(2-Cyanophenyl)-5-(2-methoxypyridin-6-yl)-1-phenyl-1,2-dihydropyridin-2-one]
5200	N#Cc1ccccc1-c1cc(-c2cccc3ccccc23)cn(-c2cccnc2)c1=O [Example 210, 3-(2-Cyanophenyl)-5-(1-naphthyl)-1-(3-pyridyl)-1,2-dihydropyridin-2-one]
2700	CS(=O)(=O)Nc1cccc(-c2cc(-c3ccccn3)cn(-c3ccccc3)c2=O)c1 [Example 228, 3-[3-(Methanesulfonylamino)phenyl]-1-phenyl-5-(2-pyridyl)-1,2-dihydropyridin-2-one]
3700	Nc1ccccc1-c1cc(-c2ccccn2)cn(-c2ccccc2)c1=O [Example 219, 3-(2-Aminophenyl)-1-phenyl-5-(2-pyridyl)-1,2-dihydropyridin-2-one]
500	N#Cc1ccccc1-c1cc(-c2ccccn2)cn(C2=CCCN(Cc3ccccc3)C2)c1=O [Example 180, 3-(2-Cyanophenyl)-5-(2-pyridyl)-1-(1-benzyl-1,2,3,6-tetrahydropyridin-5-yl)-1,2-dihydropyridin-2-one]
1200	O=c1c(-c2ccncn2)cc(-c2ccccn2)cn1-c1ccccc1 [Example 256, 1-Phenyl-3-(4-pyrimidinyl)-5-(2-pyridyl)-1,2-dihydropyridin-2-one]
100	N#Cc1ccccc1-c1cc(-c2ncccn2)cn(-c2cccc(N)c2)c1=O [Example 218, 1-(3-Aminophenyl)-3-(2-cyanophenyl)-5-(2-pyrimidinyl)-1,2-dihydropyridin-2-one]
3300	N#Cc1ccccc1-c1cc(-c2ccccn2)cn(-c2cccc3cccnc23)c1=O [Example 292, 3-(2-Cyanophenyl)-5-(2-pyridyl)-1-(8-quinolinyl)-1,2-dihydropyridin-2-one]
6600	NC(=O)c1ccccc1-c1cc(-c2ccccn2)cn(-c2ccccc2)c1=O [Example 140, 3-(2-Aminocarbonylphenyl)-5-(2-pyridyl)-1-phenyl-1,2-dihydropyridin-2-one]

Compound	IC50 [nM]
N#CCc1ccccc1-n1cc(-c2ccccn2)cc(-c2ccccc2C#N)c1=O [Example 151, 3-(2-Cyanophenyl)-5-(2-pyridyl)-1-(2-cyanomethylphenyl)-1,2-dihydropyridin-2-one]	300
N#Cc1ccccc1-c1cc(-c2ccncn2)cn(-c2ccccc2)c1=O [Example 202, 3-(2-Cyanophenyl)-1-phenyl-5-(4-pyrimidinyl)-1,2-dihydropyridin-2-one]	700
N#Cc1ccccc1-c1cc(-c2cccnn2)cn(-c2ccccc2)c1=O [Example 204, 3-(2-Cyanophenyl)-1-phenyl-5-(3-pyridazyl)-1,2-dihydropyridin-2-one]	1600
Cc1ccc(-n2cc(-c3ccccn3)cc(-c3ccccc3C#N)c2=O)cc1N [Example 222, 3-(2-Cyanophenyl)-5-(2-pyridyl)-1-(2-aminotoluen-4-yl)-1,2-dihydropyridin-2-one]	200
N#CCc1ccc(-n2cc(-c3ccccn3)cc(-c3ccccc3C#N)c2=O)cc1 [Example 150, 3-(2-Cyanophenyl)-5-(2-pyridyl)-1-(4-cyanomethylphenyl)-1,2-dihydropyridin-2-one]	300

Same assay, conditions: Table 3; primary culture of rat embryo cerebral cortex nerve cells, 2 μM AMPA, 1 μM MK-801

Compound	IC50 [nM]
O=C(NC12CC3CC(CC(C3)C1)C2)c1cc(-c2ccccn2)cn(-c2ccccc2)c1=O [Example 346, 3-(1-Adamantylaminocarbonyl)-5-(2-pyridyl)-1-phenyl-1,2-dihydropyridin-2-one]	3700
N#Cc1ccccc1-c1cc(NC(=O)Nc2ccccc2)cn(-c2ccccc2)c1=O [Example 307, 3-(2-Cyanophenyl)-1-phenyl-5-[N-(N′-phenylureylenyl)]-1,2-dihydropyridin-2-one]	2000
N#Cc1ccccc1-c1cc(-c2ccccn2)cn(C2CCCN(Cc3ccccc3)C2)c1=O (stereo not shown) [Example 379-B, 3-(2-Cyanophenyl)-5-(2-pyridyl)-1-(N-benzylpiperidin-3-yl)-1,2-dihydropyridin-2-one]	6400
N#Cc1ccccc1-c1cc(NCc2ccccc2)cn(-c2ccccc2)c1=O [Example 313, 5-Benzylamino-3-(2-cyanophenyl)-1-phenyl-1,2-dihydropyridin-2-one]	5900
N#Cc1ccccc1-c1cc(-c2ccccn2)cn(-c2cccc(OC3CCNCC3)c2)c1=O [Example 330, 3-(2-Cyanophenyl)-1-[3-(4-piperidyloxy)]phenyl-5-(2-pyridyl)-1,2-dihydropyridin-2-one]	400
N#Cc1sccc1-c1cc(-c2ccccn2)cn(-c2ccccc2)c1=O [Example 391, 3-(2-Cyanothiophen-3-yl)-5-(2-pyridyl)-1-phenyl-1,2-dihydropyridin-2-one]	100
CS(=O)(=O)N1CCC(Oc2cccc(-n3cc(-c4ccccn4)cc(-c4ccccc4C#N)c3=O)c2)CC1 [Example 338, 3-(2-Cyanophenyl)-1-{3-[1-(methanesulfonyl)piperidin-4-yl-oxy]phenyl}-5-(2-pyridyl)-1,2-dihydropyridin-2-one]	400
O=c1c(-n2ccc3ccccc32)cc(-c2ccccn2)cn1-c1ccccc1 [Example 326, 3-(Indol-1-yl)-5-(2-pyridyl)-1-phenyl-1,2-dihydropyridin-2-one]	900
CN1CCC(Oc2cccc(-n3cc(-c4ccccn4)cc(-c4ccccc4C#N)c3=O)c2)CC1 [Example 341, 1-[3-(N-methylpiperidin-4-yl-oxy)phenyl]-3-(2-cyanophenyl)-5-(2-pyridyl)-1,2-dihydropyridin-2-one]	200
N#Cc1ccccc1-c1cc(-c2ccccn2)cn(COCc2ccccc2)c1=O [Example 316, 1-Benzyloxymethyl-3-(2-cyanophenyl)-5-(2-pyridyl)-1,2-dihydropyridin-2-one]	2100
